Consider 116 molecules from a melting point compilation (Tetko et al.).

Molecule `CC1(C)CC2(CC(C)(C)c3cc(O)c(O)cc32)c2cc(O)c(O)cc21` showed a melting point of 300 °C.

`CC(=Cc1ccccc1)CC(N)=O`: the melting point is 133 °C.

Molecule `OCCN1CCN(c2ncc(C(F)(F)F)cc2Cl)CC1` displayed a melting point of 62 to 66 °C.

Turning to `COc1ccc(-c2ccccc2)cc1NNC(=O)OC(C)C`, the melting point worked out at 122 °C.

On to `COC(=O)c1ccc2cc(Br)ccc2c1`, for which the melting point is 123 to 126 °C.

`Nc1cccc(C(c2cccc(N)c2)(C(F)(F)F)C(F)(F)F)c1` showed a melting point of 86 °C.

Consider `Clc1ccccc1-c1ccccc1Cl`, for which the melting point was 61.5 °C.

`Cc1nc2ccccc2c(C(=O)O)c1C(=O)O` gave a melting point of 225 to 233 °C.

`CC(=O)Nc1ccccc1N=Nc1ccccc1` displayed a melting point of 123 °C.

The molecule `NC(=O)CC1(CC(=O)O)CCCCC1` had a melting point of 140 to 145 °C.

The molecule `ON=C1CCCc2nnc3c(c21)CCCC3` registered a melting point of 269 to 271 °C.

The molecule `OC12CC3CC(CC(C3)C1)C2` displayed a melting point of 240 °C.

For the molecule `O=C(c1ccc(O)c(O)c1)c1c(O)cc(O)cc1O`, the melting point is 222 °C.

The molecule `C=CC(C)(O)CCC1C(C)(O)CCC2C(C)(C)CCCC21C` (stereo unspecified) had a melting point of 97 °C.

In the case of `NNC(=O)c1ccccc1`, the melting point was determined as 115 °C.

For `COC(=O)c1cc([N+](=O)[O-])cc([N+](=O)[O-])c1`, the melting point stood at 110 °C.

For the molecule `C=Cc1ccc2c(c1)OCCOCCOCCOCCOCCO2`, the melting point fell in the range of 57 to 60 °C.

In turn, `O=c1[nH]nc([N+](=O)[O-])c(Cl)c1Cl` had a melting point of 184 to 186 °C.

As for `Sc1ccccc1S`, the melting point is 28.5 °C.

Molecule `Cc1cc(O)ccc1F` registered a melting point of 32 °C.

On to `Cc1nc(-c2ccc(C(=O)O)s2)cs1`, for which the melting point came to 200 °C.

In turn, `O=C(O)c1ccc(Oc2ccccc2)nc1` registered a melting point of 164 °C.

With `O=C(OCCCl)OCCCl`, the melting point worked out at 8 °C.

Molecule `COc1cc2c(cc1C)C(C(=O)O)C2` (stereo unspecified) registered a melting point of 138 °C.

The molecule `CCCCCCCCCCCC(N)=O` displayed a melting point of 110 °C.

`Nc1ccnc(Br)c1` gave a melting point of 98 °C.

`COc1cc2c(c(OC)c1OC)C(=O)[C@]1(OC)C=C[C@H]2N(c2ccccc2)O1` yielded a melting point of 114 °C.

Turning to `NS(=O)(=O)c1cc2c(s1)S(=O)(=O)CCC2=O`, the melting point was determined as 242 °C.

`CC(C)(C)OC(=O)N[C@H](CC(=O)O)Cc1ccncc1`: the melting point was found to be 142 °C.

Consider `O=C=Nc1cccc(COc2ccccc2)c1`, for which the melting point fell in the range of 51 to 53 °C.

`NC(=S)NN=Cc1ccccc1` had a melting point of 154 to 156 °C.

`Oc1ccc(C(O)(c2ccccc2)c2ccc(O)c3ccccc23)c2ccccc12` showed a melting point of 232 °C.

Turning to `CC(C)c1ccccc1OS(=O)(=O)c1ccc([N+](=O)[O-])cc1`, the melting point fell in the range of 98 to 100 °C.

For the molecule `CC(C)(C)NC(=S)NC(C)(C)C`, the melting point lay in the range of 168 to 171 °C.

In turn, `CCOC(=O)c1c(-c2ccco2)csc1N` returned a melting point of 86 to 89 °C.

In the case of `Cc1cc(C(=O)O)cc(O)n1`, the melting point worked out at 240 °C.

`O=C(O)c1ccc(C#Cc2ccccc2)o1`: the melting point was in the range of 212 to 213 °C.

For `COc1ccc2c(c1)/C(=N/Nc1ccc([N+](=O)[O-])cc1[N+](=O)[O-])C2`, the melting point was in the range of 220 to 222 °C.

For the molecule `Oc1ccccc1Cc1ccccc1`, the melting point turned out to be 52 °C.

Consider `N#CC1(c2ccc(Cl)cc2)CCCCC1`, for which the melting point lay in the range of 88 to 92 °C.

`Cn1cccc1-c1nnc(S)n1-c1ccc(Cl)cc1Cl` gave a melting point of 252 to 256 °C.

In the case of `Cc1nc(-c2ccc(CBr)cc2)no1`, the melting point was 103 to 104 °C.

`CSc1nc(N)nc(N2CCCCC2)n1` yielded a melting point of 156 to 158 °C.

Take `O=C(O)CCCNC(=O)CCCCC(=O)NCCCC(=O)O`: the melting point stood at 145 °C.

Regarding `CCOC(=O)c1cc(-c2ccco2)n(C)n1`, the melting point is 63 to 64 °C.

As to `Nc1ccccc1-c1ccccc1N`, the melting point turned out to be 81 °C.

Molecule `CCCCCC(C)CCC` (stereo unspecified) displayed a melting point of -99 °C.

`COC1=CC(=O)OC(C=Cc2ccccc2)C1` (stereo unspecified) came in with a melting point of 106 °C.

Consider `CCCCC(NC(=O)OCC1c2ccccc2-c2ccccc21)C(=O)O` (stereo unspecified), for which the melting point stood at 141 °C.

On to `O=C(CCl)NNC(=O)c1ccccc1`, for which the melting point was in the range of 163 to 166 °C.

Regarding `CCCCCCCC(=O)Cl`, the melting point is -63 °C.

`COC(=O)c1cc(C)c(Br)s1` yielded a melting point of 35 to 37 °C.

As to `c1ccc(C2Nc3ccccc3C2c2ccccc2)cc1` (stereo unspecified), the melting point is 173 °C.

In turn, `CCCCCC1C(=O)CCC1CC(=O)OC` (stereo unspecified) yielded a melting point of -10 °C.

The molecule `CS(=O)CCC(N)C(=O)O` (racemic) showed a melting point of 232 to 234 °C.

As for `Cc1cccc(N/N=C(\C#N)c2nc(-c3ccc(Cl)cc3)cs2)c1C`, the melting point worked out at 196 °C.

For the molecule `O=C(O)c1cccnc1Sc1ccc(Cl)cc1`, the melting point was 220 °C.

Regarding `O=Cc1ccc(-c2ccc(F)c(C(F)(F)F)c2)o1`, the melting point lay within 89 to 91 °C.

Take `O=C(CI)c1ccccc1`: the melting point was found to be 34.4 °C.

`CCC(COCCOc1c(I)cc(I)c(NC(C)=O)c1I)C(=O)O` (stereo unspecified) yielded a melting point of 130 °C.

In turn, `OCCNC1CCCCC1` returned a melting point of 36 °C.

As to `O=C(O)c1cc2cccc([N+](=O)[O-])c2[nH]1`, the melting point was 265 °C.

Molecule `CC(CCC(=O)O)Cc1ccccc1` (stereo unspecified) showed a melting point of 56 °C.

Take `COC(=O)C=Cc1cccs1`: the melting point amounted to 49 °C.

Molecule `CNc1ccccn1` returned a melting point of 15 °C.

In the case of `CC1=NN(c2cccc(Cl)c2)C(=O)C1`, the melting point is 125 to 128 °C.

On to `Cc1cc(Br)cc(C)c1N=C=O`, for which the melting point was found to be 61 °C.

On to `N=C(N)NOCCC(N)C(=O)O` (stereo unspecified), for which the melting point was determined as 184 °C.

In turn, `COC(=O)c1cccnc1N` had a melting point of 84 to 86 °C.

Consider `FC(F)(F)c1cnc(S)c(Cl)c1`, for which the melting point is 145 to 149 °C.

Take `ClCCCOc1ccccc1`: the melting point was 12 °C.

`NC(=S)Nc1ccc(I)cc1`: the melting point is 183 to 184 °C.

Turning to `Cc1nc(C(C)(C)C)sc1C(=O)O`, the melting point turned out to be 156 °C.

The molecule `CNCc1ccc(-c2ccccc2)nc1` yielded a melting point of 39 to 41.5 °C.

Molecule `OCc1ccc(N2CCCCC2)cc1` returned a melting point of 148 to 149 °C.

`COC(=O)c1ccc(N2CCCCC2)nc1`: the melting point lay in the range of 70 to 72 °C.

`N#Cc1ccc(N2CCNCC2)cc1` yielded a melting point of 82 to 84 °C.

On to `Cc1nc2ccccc2o1`, for which the melting point was 9.5 °C.

With `O=C(O)CONC(=O)c1ccccc1`, the melting point was found to be 140 °C.

`NC(=O)c1cnc2ccccc2n1` came in with a melting point of 195 °C.

The molecule `Cc1nn(-c2ccccc2)nc1C(=O)O` had a melting point of 203 °C.

`Nc1c(F)c(F)nc(F)c1F` registered a melting point of 86 °C.

As to `Cc1c(N)cccc1C(=O)O`, the melting point was 187 °C.

Take `CC1=NN(CN2CCOCC2)C(=O)/C1=N\Nc1ccc(C(=O)O)cc1`: the melting point amounted to 187 °C.

As to `Cn1cnc2ccccc21`, the melting point was 61 °C.

In turn, `Cc1cc(OC(=O)N(C)C)n(-c2ccccc2)n1` displayed a melting point of 50 °C.

`Cc1cccc(F)c1`: the melting point was -87 °C.

On to `O=C1NC(=O)C2(CCc3ccccc3C2)N1` (stereo unspecified), for which the melting point was found to be 268 °C.

As for `C=CC(=O)NC(CO)(CO)CO`, the melting point was in the range of 136 to 141 °C.

`O=[N+]([O-])C=Cc1ccccc1Cl` returned a melting point of 48 °C.

Molecule `NC(=O)CNCCS(=O)(=O)O` yielded a melting point of 270 to 295 °C.

In turn, `O=C(c1cc2ccccc2o1)c1cc2ccccc2o1` registered a melting point of 174 to 175 °C.

In turn, `Cc1ccc(S(=O)(=O)N2C/C(=C\c3cccc(Cl)c3)N(S(=O)(=O)c3ccc(C)cc3)c3ccccc32)cc1` registered a melting point of 145 °C.

`CC(=Cc1ccccc1)C(=O)O` yielded a melting point of 80 °C.

The molecule `O=Cc1ccccc1Sc1ccc(Cl)cc1` showed a melting point of 73 °C.

Take `CSCCC=O`: the melting point is -58 °C.

The molecule `CC1CCCCS1` (stereo unspecified) registered a melting point of -58 °C.

Molecule `CC1=NN(c2ccccc2)C(=O)C1=C(Br)C1C(=O)N(c2ccccc2)N=C1C` (stereo unspecified) gave a melting point of 218 to 219 °C.

In the case of `CC(=O)OC1CCC2C3CCC4CC(CC(=O)O)CCC4(C)C3CCC12C` (stereo unspecified), the melting point was in the range of 151 to 153 °C.

`O=C(O)CCCCCCC(=O)c1ccccc1` came in with a melting point of 81 °C.

In turn, `Cc1nc(-c2ccccn2)nc(O)c1Cl` returned a melting point of 142 to 144 °C.

`CCC(C)(C)[C@H]1CC[C@H](O)CC1` displayed a melting point of 26 °C.

In turn, `COC(=O)c1cc(O)ccc1O` gave a melting point of 87 °C.

Consider `CC(C)(C)NC=O`, for which the melting point was determined as 16 °C.

For `O=c1[nH]c(-c2ccccc2)cc2ccncc12`, the melting point worked out at 239 °C.

The molecule `O=C(Oc1ccc(O)cc1)c1ccccc1` gave a melting point of 166 °C.

`Cc1ccc2c(Cl)cc(Cl)c(O)c2n1` yielded a melting point of 114 °C.

Take `OC(C#CC#CC(O)(c1ccccc1)c1ccccc1Cl)(c1ccccc1)c1ccccc1Cl` (single isomer, unassigned; (+)): the melting point is 130 to 133 °C.

The molecule `Cc1cccc(NC(=O)c2cnc(C(C)(C)C)cn2)c1` gave a melting point of 95 °C.

With `C=COC(=O)CCCCCCCCCCCCCCCCC`, the melting point came out at 36 °C.

Turning to `O=S(=O)(Cl)c1ccc(-c2cc(C(F)(F)F)on2)s1`, the melting point fell in the range of 106 to 107 °C.

Consider `CC1C2Cc3ccc(O)cc3C1(C)CCN2CC1CC1` (stereo unspecified), for which the melting point is 202 °C.

The molecule `O=[N+]([O-])c1ccc(I)c([N+](=O)[O-])c1` had a melting point of 89 °C.

In turn, `ON=Cc1cccc(Br)c1` had a melting point of 72 °C.

`NC(=O)C1CCCNC1` (stereo unspecified) yielded a melting point of 102 to 108 °C.

Turning to `c1ccc(Cn2cccc2)cc1`, the melting point was found to be 15 °C.
